Measurements reported in patent US20140271606A1, “METHODS OF USING ADENOSINE RECEPTOR ANTAGONISTS FOR TREATING BLEEDING DISORDERS” (Bayer HealthCare LLC, priority 2013, published 2014).

How the values were obtained:
Hemophilia A mice = experiment: Tail cut blood loss in Hemophilia A mice; assay type: in vivo; conditions: 30 min bleeding
Method: In this Example, the effect of administering an adenosine receptor antagonist on reduction in blood loss in mice with Hemophilia A and Hemophilia B mice was analyzed. Male Hemophilia A or Hemophilia B mice, approximately eight to nine weeks of age and weighing, on average, approximately 25 grams, were used in this Example. The mice were anesthetized with isoflurane and the tails were placed in approximately 37-38° C. warmed 15-ml plastic tubes including 0.9% (by weight) saline for 10 minutes. The tails were then cut at 4 mm from the tip by scalpel and immediately placed back into separate pre-warmed (37-38° C.) 15-ml plastic tubes containing 10 ml of 0.9% (by weight) saline. Each mouse was allowed to bleed freely for 30 minutes. The adenosine 2a and 2b receptor antagonist, 4-(2-[7-Amino-2-(2-furyl)[1,2,4]triazolo[2,3-a][1,3,5]triazin-5-ylamino]ethyl)phenol (commercially available as ZM241385 from Tocris Bioscience, United Kingdom), was used in this Example. In a first sample group, ZM241385 was dissolved in 100% DMSO. In a second sample group, ZM241385 was dissolved in PEG400/ethanol/water (40/10/50 v/v/v). In a third sample group, ZM241385 was dissolved in PEG400/water (60/40 v/v). […] Blood loss was quantified gravimetrically by weighing the tubes before and after blood was collected.

Hemophilia B mice = experiment: Tail cut blood loss in Hemophilia B mice; assay type: in vivo; conditions: 100 mg/kg intravenous in PEG400/water 60/40, 5 min prior to tail cut, 30 min bleeding, vs excipient (FIG. 4)
Method: In this Example, the effect of administering an adenosine receptor antagonist on reduction in blood loss in mice with Hemophilia A and Hemophilia B mice was analyzed. Male Hemophilia A or Hemophilia B mice, approximately eight to nine weeks of age and weighing, on average, approximately 25 grams, were used in this Example. The mice were anesthetized with isoflurane and the tails were placed in approximately 37-38° C. warmed 15-ml plastic tubes including 0.9% (by weight) saline for 10 minutes. The tails were then cut at 4 mm from the tip by scalpel and immediately placed back into separate pre-warmed (37-38° C.) 15-ml plastic tubes containing 10 ml of 0.9% (by weight) saline. Each mouse was allowed to bleed freely for 30 minutes. Nineteen mice having Hemophilia B were injected with the third sample of adenosine receptor antagonist solution by intravenous injection in the amount of 100 mg/kg ZM241385 five minutes prior to the tail cut. Nineteen control mice were treated with 100 μl of PEG400/water (60/40 v/v) without any adenosine receptor antagonist prior to the tail cut to serve as an untreated control. Blood loss was quantified gravimetrically by weighing the tubes before and after blood was collected.

Measured: blood loss

Nc1nc(NCCc2ccc(O)cc2)nc2nc(-c3ccco3)nn12 [ZM241385, 4-(2-[7-Amino-2-(2-furyl)[1,2,4]triazolo[2,3-a][1,3,5]triazin-5-ylamino]ethyl)phenol]
reduced blood loss: Hemophilia A mice; 100 mg/kg intraperitoneal in 100% DMSO, 30 min prior to tail cut, vs excipient (FIG. 2) | Hemophilia A mice; 300 mg/kg intraperitoneal in PEG400/ethanol/water 40/10/50, 30 min prior to tail cut, vs excipient (FIG. 3) | Hemophilia B mice
